Source: paper doi:10.1101/215335v1 (biorxiv, 2017)

Target: T1, TaALMT1 (Triticum aestivum, UniProt Q76LB1)
T1 sequence (Q76LB1 1-459): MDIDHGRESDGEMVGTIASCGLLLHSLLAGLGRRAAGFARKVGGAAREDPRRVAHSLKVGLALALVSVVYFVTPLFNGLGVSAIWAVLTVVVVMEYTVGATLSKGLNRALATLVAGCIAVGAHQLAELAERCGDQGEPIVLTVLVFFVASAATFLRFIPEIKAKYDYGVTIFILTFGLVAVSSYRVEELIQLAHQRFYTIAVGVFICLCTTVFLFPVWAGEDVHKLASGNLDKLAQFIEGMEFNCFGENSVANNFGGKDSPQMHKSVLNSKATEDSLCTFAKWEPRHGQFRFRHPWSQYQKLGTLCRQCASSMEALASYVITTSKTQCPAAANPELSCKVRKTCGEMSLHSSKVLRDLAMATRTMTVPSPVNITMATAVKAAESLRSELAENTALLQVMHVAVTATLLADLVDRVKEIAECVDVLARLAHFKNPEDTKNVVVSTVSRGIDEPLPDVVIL
Assay: TEVC in Xenopus oocytes, malate-activated inward current
Type: cell-based
Conditions: read-out: % inhibition at 100 μM

Structure (SMILES): C=CC(N)CCC(=O)O (stereo not shown) [vigabatrin]
- inhibition at 100 µM: 100%
